# Read-outs that look alike come from different tables or passages of the source.
# Legend:
# M1 mAChR = target: T1, M1 mAChR (Homo sapiens, UniProt P11229); assay: β-arrestin 2 recruitment assay (BRET); assay type: cell-based; conditions: for αβ (functional cooperativity with ACh) / τB (intrinsic efficacy of the modulator): antilog, in parentheses; for log τB (logarithm of intrinsic efficacy of the modulator) / log αβ (logarithm of functional cooperativity between ACh and modulator): operational model; for log αβ (logarithm of functional cooperativity between ACh and modulator): pKB constrained to binding value
# T1 construct: expressed in transfected cells; host or cells: parental FlpIn CHO cells (transient, PEI)
# T1 sequence (P11229 1-460): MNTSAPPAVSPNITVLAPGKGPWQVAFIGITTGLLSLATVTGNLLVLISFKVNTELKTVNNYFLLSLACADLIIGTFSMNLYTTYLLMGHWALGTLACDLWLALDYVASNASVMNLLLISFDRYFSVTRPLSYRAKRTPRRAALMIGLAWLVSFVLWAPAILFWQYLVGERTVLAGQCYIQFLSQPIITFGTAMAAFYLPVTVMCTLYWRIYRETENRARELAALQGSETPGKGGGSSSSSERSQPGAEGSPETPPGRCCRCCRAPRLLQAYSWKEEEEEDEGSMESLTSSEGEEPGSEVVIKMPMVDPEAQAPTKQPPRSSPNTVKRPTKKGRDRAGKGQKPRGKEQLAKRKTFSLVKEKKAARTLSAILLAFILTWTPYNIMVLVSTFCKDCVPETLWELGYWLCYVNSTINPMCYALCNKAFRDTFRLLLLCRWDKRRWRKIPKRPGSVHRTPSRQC
# Text: (§1) The compounds were then fully characterised in two functional assays (Figure 2C and D); the Gq-coupled IP1 accumulation assay (Figure S2), which was used for the initial screening of the compounds, and a β-arrestin 2 recruitment assay (Figure S3). The operational efficacy (τB) values for the modulators and their functional cooperativity estimates with ACh (logαβACh) at both signalling pathways were estimated by applying an operational model of allosterism and agonism to the data [Eq. (3)],[16] and are listed in Table 5.
# Parental FlpIn CHO cells were plated at 30000 cells/well of 96-well white Culture plates (Perkin Elmer Life Sciences) and transiently transfected with 10 ng/well of M1 Renilla luciferase (Rluc)-8 and 40 ng/well of YFP-β-arrestin 2 using linear polyethyleneimine (PEI/DNA ratio 6:1) diluted in 150 mM NaCl. DNA:PEI complexes were formed by 15 min incubation at room temperature then added to the cells and incubated at 37°C for 24 h prior to use. Cells were then washed and equilibrated in Hanks’ balanced salt solution for 1 h at 37°C. Coelenterazine h at a final concentration of 5 μM was added to each well, followed by addition of increasing concentrations of ACh in the absence or presence of increasing concentrations of each modulator. Lumines-cence and fluorescence signals were measured 5 min after agonist stimulation using the LUMIstar Omega plate reader (BMG LabTech, Offenburg, Germany). […] Data were then normalized to the maximum response to ACh.
# (§2) Functional interaction studies between ACh and allosteric modulators in IP1 and β-arrestin 2 recruitment assays were analysed according to a three-parameter logistic equation or the following operational model of allosterism and agonism [Eq. (3)].[16] E=Basal+(Em−Basal)([A](KB+αβ[B])+τB[B]EC50)^n/EC50n(KB+[B])^n+([A](KB+αβ[B])+τB[B]EC50)^n where Em is the maximal possible system response, and Basal is the response in the absence of agonist. [A] and [B] are concentrations of orthosteric and allosteric ligands, respectively. KB is the equilibrium dissociation constant of allosteric ligand, and EC50 is the concentration of orthosteric agonist required to achieve half maximal response. α and β represent the magnitude of the allosteric effects on orthosteric ligand affinity and efficacy, respectively; τB is the efficacy of allosteric ligand, and n is the slope factor of the transducer function that links occupancy to response.
# hM1 mAChR [1] = target: T2, hM1 mAChR (Homo sapiens, UniProt P11229); assay: IP1 accumulation assay (ACh concentration-response curves in absence or presence of modulator); assay type: cell-based; conditions: for activation at 1 µM: read-out: Δbaseline [1 μM]: change in basal response in presence of M1 PAM compared to control curve; for activation at 10 µM: read-out: Δbaseline [10 μM]: change in basal response in presence of M1 PAM compared to control curve; for log τB (logarithm of intrinsic efficacy of the modulator) / log αβ (logarithm of functional cooperativity between ACh and modulator): operational model; for log αβ (logarithm of functional cooperativity between ACh and modulator): pKB constrained to binding value
# T2 construct: expressed in transfected cells
# T2 sequence (P11229 1-460): T1 sequence (P11229 1-460)
# Protocol: Functional activity of the synthesized analogues as racemic mixtures was investigated in IP1 accumulation assays at the M1 mAChR, as described previously.[13–14] ACh concentration-response curves were generated in the absence or presence of a 1 and 10 μM concentration of each modulator. The change in baseline activity (Δbaseline) is an approximate measure of direct allosteric agonism (τB), whereas the pEC50 shift (ΔpEC50) is an approximate measure of functional cooperativity (αβ) of each modulator with ACh in the investigated signalling pathway. We aimed to identify modulators with various degrees of allosteric agonism and modulatory effects on ACh response, as these could generate distinct in vivo outcomes for applications in different conditions in the CNS or gastrointestinal (GI) tract.[[10g,h,j]]
# as §1
# FlpIn CHO cells stably expressing the hM1 mAChR were seeded at 25000 per well of 96-well transparent cell culture plates and grown overnight. […] Cells were then stimulated with increasing concentration of ACh in the absence or presence of increasing concentrations of each modulator for 1 h at 37°C. […] Seven μL of cell lysates were transferred into wells of 384-well Proxiplates (Perki-nElmer Life Sciences), and IP1 levels were measured using the IP-One assay kit (Cisbio, Codolet, France). […] The signal was expressed as the HTRF ratio, interpolated from the standard curve, and normalized to the maximum response to ACh.
# Changes in both baseline and pEC50 were quantified by subtracting the estimates at each M1 PAM concentrations with the control values. Propagation of the error on baseline and potency values were determined as follows [Eq. (1)]: σΔ=σPAM2+σcont.2 where σΔ is the standard error of the mean (SEM) for the change in value, and σPAM and σcont. are the SEM from the three-parameter logistic equation analysis in presence or absence of M1 PAM, respectively.
# as §2
# hM1 mAChR [2] = target: T2, hM1 mAChR; assay: Whole-cell [3H]NMS equilibrium competition radioligand binding; conditions: [3H]NMS binding; for α (binding cooperativity with ACh): antilog
# Protocol: To determine the affinity (pKB) of the allosteric modulators for the allosteric site, and their binding cooperativity with ACh (log αACh) at the M1 mAChR, whole cell equilibrium competition binding studies were performed, using [^3H]NMS to label the orthosteric site.
# FlpIn Chinese hamster ovary (CHO) cells stably expressing the hM1 mAChR were grown in Dulbecco’s modified Eagle’s medium (DMEM) (Invitrogen, Carlsbad, CA) supplemented with 5% foetal bovine serum (FBS) (Thermo-Trace, Melbourne, Australia) and 300 μg/mL G418 (Invitrogen, Carlsbad, CA). The cells were plated at 50,000 cells per well of 96-well white clear bottom plates (Greiner Bio-one, Kremsmünster, Austria), and were grown overnight. The following day, cells were washed twice with Phosphate Buffered Saline (PBS), and incubated with increasing concentrations of ACh (Sigma) in the absence or presence of increasing concentrations of each modulator and 0.2 nM [^3H]NMS (PerkinElmer Life Sciences) in binding buffer (20 mM HEPES, 100 mM NaCl, 10 mM MgCl2, pH 7.4) for 5 h at room temperature. Nonspecific binding was determined using atropine at the final concentration of 10 μM. The assays were terminated by rapid removal of the unbound radioligand followed by two washes with 100 μL/well ice-cold 0.9% NaCl buffer. Radioactivity was determined by addition of 100 μL/well Ultima gold (PerkinElmer Life Sciences) and counting in a MicroBeta plate reader (PerkinElmer Life Sciences).
# Binding interaction studies with allosteric ligands were fitted to the following allosteric ternary complex model [Eq. (2)][15] Y=Bmax|A|/[Λ]+[KAKB/α^′[B]+KB][1+[I]/K1+[B]/KB+α[I][B]/KIKB] where Bmax is the total number of receptors, [A], [B] and [I] denote the concentrations of radioligand, allosteric modulator, and orthosteric ligand, respectively; KA, KB and KI are their respective equilibrium dissociation constants. α’ and α are the affinity cooperativity factors between the allosteric ligand and radioligand or the allosteric modulator and ACh, respectively. Values of α or α’ > 1 denote positive cooperativity, values < 1 but > 0 denote negative cooperativity, and a value of 1 indicates neutral coopera-tivity.
# [3] = 1 μM modulator, FlpIn CHO hM1 cells, mean ± SEM, 3 experiments
# [4] = 10 μM modulator, FlpIn CHO hM1 cells, mean ± SEM, 3 experiments
# [5] = IP1 accumulation, antilog, in parentheses
# [6] = allosteric ternary complex model, mean ± SEM, read-out: pKB (negative logarithm of the allosteric modulator equilibrium dissociation constant) (converted)
SMILES,αβ (functional cooperativity with ACh) (M1 mAChR),τB (intrinsic efficacy of the modulator) (M1 mAChR),log τB (logarithm of intrinsic efficacy of the modulator) (M1 mAChR),log αβ (logarithm of functional cooperativity between ACh and modulator) (M1 mAChR),activation at 1 µM (hM1 mAChR [1]; [3]) [%],activation at 10 µM (hM1 mAChR [1]; [4]) [%],τB (intrinsic efficacy of the modulator) (hM1 mAChR [1]; [5]),log τB (logarithm of intrinsic efficacy of the modulator) (hM1 mAChR [1]; IP1 accumulation),log αβ (logarithm of functional cooperativity between ACh and modulator) (hM1 mAChR [1]; IP1 accumulation),Kb (hM1 mAChR [2]; [6]) [µM],"Kb (hM1 mAChR [2]; antilog of pKB, in parentheses, read-out: KB (converted)) [µM]",α (binding cooperativity with ACh) (hM1 mAChR [2]; in parentheses),log αACh (logarithm of binding cooperativity between ACh and modulator) (hM1 mAChR [2]; mean ± SEM),ΔpEC50 [1 μM]: change in ACh pEC50 in presence of M1 PAM compared to control curve (hM1 mAChR [1]; [3]),ΔpEC50 [10 μM]: change in ACh pEC50 in presence of M1 PAM compared to control curve (hM1 mAChR [1]; [4]),αβ (functional cooperativity with ACh) (hM1 mAChR [1]; [5])
"Cn1cc(-c2ccc(COc3ncccc3-c3cc(=O)n(C4CCCCC4O)cn3)cc2)cn1 (stereo not shown) [Compound 26a, 3-(2-Hydroxycyclohexyl)-6-(2-((4-(1-methyl-1H-pyrazol-4-yl)benzyl)oxy)pyridin-3-yl)pyrimidin-4(3H)-one]",95,2,0.28±0.04,1.98±0.10,100,100,3,0.54±0.02,1.89±0.07,3.31,3,120,2.08±0.13,,,
"O=c1cc(-c2ccccc2OCc2ccc(-n3cccn3)nc2)ncn1C1CCCCC1O (stereo not shown) [Compound 27b, 6-(2-((6-(1H-Pyrazol-1-yl)pyridin-3-yl)methoxy)phenyl)-3-(2-hydroxycyclohexyl)pyrimidin-4(3H)-one]",56,0.4,–0.36±0.12,1.75±0.11,38.5 ± 3.8,78.6 ± 2.8,3,0.54±0.04,2.05±0.12,15.8,,151,2.18±0.19,0.96±0.18,1.50±0.32,112
